Experimental data taken from ChEMBL document CHEMBL1123147, “The intercalation of 6-chloro-substituted-9-[[3-(dimethylamino)propyl]amino]acridines with DNA” (J Med Chem, 1985).

Test system: Nucleic Acid
Assay: Binding constant were determined from viscometric titrations with closed circular superhelical DNA

Row | Compound | K app
1 | CN(C)CCCNc1c2ccc(Cl)cc2nc2ccc(Cl)cc12 | 160000
2 | Cc1ccc2nc3cc(Cl)ccc3c(NCCCN(C)C)c2c1 | 290000
3 | CN(C)CCCNc1c2ccc(Cl)cc2nc2ccc(F)cc12 | 160000
4 | CN(C)CCCNc1c2ccccc2nc2cc(Cl)ccc12 | 130000
5 | COc1ccc2nc3cc(Cl)ccc3c(NCCCN(C)C)c2c1 | 210000
6 | CSc1ccc2nc3cc(Cl)ccc3c(NCCCN(C)C)c2c1 | 200000
